{"source": "patent US20070161691A1", "about": "“Modified-protein formation inhibitor” (TOKAI UNIVERSITY, priority 2003, published 2007)", "key": {"[1]": {"test_system": "middle cerebral artery ischemia-reperfusion model", "assay": "Cerebroprotective action in middle cerebral artery ischemia-reperfusion model", "type": "in vivo, rat", "procedure": "CD(SD)IGS male rats (Japan Charles River Kabushiki […], Hino farm, room No. 22, specific product) (8 rats per one group) having body weight 270 to 350 g were anesthetized by 2% isoflurane (mixed bas comprising of 70% N2O (laughter gas) and 30% O2) to immobilize, and then the rats were put on warming plate to keep the rectal and brain temperature 37 to 38° C. After that, to observe the stability in the examination, canula which was made by polyethylene (PE-50, Becton Dickinson) was inserted and left in caudal artery of said animal, and this made blood drawing and blood pressure determining to monitor the biochemical parameter such as blood sugar level, hematocrit, CO2 concentration, oxygen partial pressure, pH, blood pressure and etc. In addition, cerebral blood flow in cortex was determined by laser doppler […] (Neuroscience.inc: OMEGA FLOW (FLO-C1)), putting the detection site directly on cranium on the point left 4 mm from bregma. Left neck of such animal was incised, and from internal and external carotid fork of common carotid artery to upstream of internal carotid, nylon surgical thread (length 16 mm, diameter 0.2 to 0.3 mm, with silicon coating on its tip 3 mm) was passed and left, middle cerebral artery was obstructed for 2 hours. After that, the thread was removed to release the middle cerebral artery, and blood was reperfused for 21 hours. To each animals, 3.0 mg/kg of 3-methyl-1-phenyl 2-pyrazolin-5-one (control, hereinafter referring to edaravone) and 4.23 mg/kg of 4-(5-phenyltetrazol-1-ylmethyl)-morpholine (compound 1) (test compound, hereinafter referring to TM-3001) were respectively administered twice by cannula which is left in caudal artery 5 minutes and 5 hours after middle cerebral artery occlusion. After said operation, the brain was removed from said animal, and after preparing 7 brain slices with 2 mm thickness, to TTC stain (0.8 g of 2,3,5-triphenyltetrazolium chloride (Sigma) dissolved in 40 ml of saline) were soaked at 37° C. for 15 minutes to stain, and fixed by 10% neutral formalin liquid to prepare specimen. Such specimens were created the image by CCD camera respectively, and analysed according to method of Swanson et al. (J Cereb Blood Flow Metab 10:290-293; […]). […] Furthermore, function recovering was estimated before and after the operation by rotor rod test that estimates how much they can walk on rotating rotor."}, "[2]": {"test_system": "middle cerebral artery ischemia-reperfusion model", "assay": "Cerebroprotective action in middle cerebral artery ischemia-reperfusion model", "type": "in vivo, rat", "details": "after reperfusion 22 hrs"}, "[3]": {"details": "comparing to diluent single administration"}}}
{"smiles": "CC1=NN(c2ccccc2)C(=O)C1", "note": "[Edaravone, 3-methyl-1-phenyl 2-pyrazolin-5-one, reference compound]", "values": [{"measurement": "Nervous condition estimation test, Ave (Bederson grade)", "setting": "[1]; after occlusion 10 min", "value": 2.8}, {"measurement": "Nervous condition estimation test, Ave (Bederson grade)", "setting": "[1]; after occlusion 2 hrs", "value": 2.7}, {"measurement": "Nervous condition estimation test, Ave (Bederson grade)", "setting": "[1]; after reperfusion 10 min", "value": 2.2}, {"measurement": "Nervous condition estimation test, Ave (Bederson grade)", "setting": "[1]; after reperfusion 3 hrs", "value": 2.1}, {"measurement": "Nervous condition estimation test, Ave (Bederson grade)", "setting": "[1]; after reperfusion 4 hrs", "value": 2.0}, {"measurement": "rotor rod test, Ave (count from rotor rod machine)", "setting": "[1]; before occlusion", "value": 197.0}, {"measurement": "improvement for nervous condition", "setting": "[1]; [3]", "value": "remarkably shown"}, {"measurement": "recovering the function, rotor rod test", "setting": "[1]; [3]", "value": "remarkably shown"}, {"measurement": "cerebral infarction nest", "setting": "[1]; comparing to diluent single administration, dosed 5 minutes and 5 hours after occlusion", "value": "significantly reduced"}, {"measurement": "rotor rod test, Ave (count from rotor rod machine)", "setting": "[1]; reperfusion", "value": 153.1}, {"measurement": "rotor rod test, ratio to before occlusion (%), Ave", "setting": "[1]; reperfusion vs before occlusion", "value": 160.4, "unit": "%"}, {"measurement": "Nervous condition estimation test, Ave (Bederson grade)", "setting": "[2]", "value": 1.5}]}
